Assay results: paper PMC11389776, “Positive allosteric modulation of a GPCR ternary complex” (Science Advances, 2024)

How the values were obtained:
[1] = target: T1, M2 mAChR (Homo sapiens, UniProt P08172); test: Kinetic Gαi1 (TRUPATH) protein activation assay in M2 mAChR CHO cells; format: cell-based; settings: for Steady state: final effect level, normalized to ACh
T1 construct: expressed in transfected cells
T1 sequence (P08172 1-466): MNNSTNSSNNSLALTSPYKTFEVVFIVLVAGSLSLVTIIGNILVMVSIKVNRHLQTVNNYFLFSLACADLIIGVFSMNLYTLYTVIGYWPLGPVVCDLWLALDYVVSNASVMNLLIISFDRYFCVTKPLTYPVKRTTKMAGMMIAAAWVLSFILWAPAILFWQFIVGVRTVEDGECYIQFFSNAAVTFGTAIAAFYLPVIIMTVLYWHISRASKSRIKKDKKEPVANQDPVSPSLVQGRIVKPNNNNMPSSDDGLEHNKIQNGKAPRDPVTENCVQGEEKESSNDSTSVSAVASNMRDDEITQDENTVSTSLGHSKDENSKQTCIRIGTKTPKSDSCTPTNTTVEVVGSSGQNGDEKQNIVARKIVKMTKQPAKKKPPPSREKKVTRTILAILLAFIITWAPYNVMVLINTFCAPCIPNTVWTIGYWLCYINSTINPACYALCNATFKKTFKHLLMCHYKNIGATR
Method: Upon 60 to 80% confluence, WT hM2 mAChR expressing FlpIn CHO cells were transfected transiently using polyethylenimine (Sigma-Aldrich) with 10 ng per well of each the G protein TRUPATH biosensors pcDNA5/FRT/TO-Gαi1-RLuc8/pcDNA3.1-β3/pcDNA3.1-Gγ9-GFP2 giving a ratio of 1:1:1 ratio with 30 ng in total. Cells were plated at 30,000 cells per well into 96-well Greiner CELLSTAR white-walled plates (Sigma-Aldrich). Forty-eight hours later, cells were washed with 200 μl of PBS and replaced with 1x Hanks’ balanced salt solution supplemented with 10 mM Hepes. […] Cells were further incubated for 10 min at 25°C before BRET measurements were performed on a PHERAstar FSX plate reader (BMG Labtech) using 410/80-nm and 515/30-nm filters. […] The BRET signal was calculated as the ratio of 515/30-nm emission over 410/80-nm emission. The ratio was vehicle corrected using the initial four baseline measurements and then baseline corrected again using the vehicle-treated wells. Concentration-response curves were constructed from the area under the curve (AUC) of the double baseline-corrected kinetic traces and normalized to the highest AUC value in each dataset.
(§1) All data were analyzed using GraphPad Prism 9 (GraphPad Software, San Diego, CA). Concentration-response curves were fit with a three-parameter logistic equation to quantify potency (pEC50) and an operational model of agonism to derive an efficacy parameter (log τ) ([69]). […] For competition binding experiments between [^3H]-NMS and a range of concentrations of unlabeled orthosteric agonist at M2 mAChR nanodiscs in the presence of G protein and for competition binding at M2 mAChR membranes, data were fit to a two-site competition binding model or a one-site competition binding model. […] Monoexponential decay and one-phase association equations were fit to the radioligand dissociation and association data at M2 mAChR nanodiscs. Kinetic TRUPATH data were analyzed using a “baseline then rise to steady state with drift” equation ([44]).

[2] = target: T2, M2ΔICL3 mAChR (Homo sapiens, UniProt P08172, DEL226-389); test: ERK1/2 phosphorylation assay in M2ΔICL3 mAChR FlpIn CHO cells; format: cell-based; settings: pERK1/2, M2ΔICL3 mAChR FlpIn CHO cells, normalized to FBS; three-parameter logistic
T2 construct: expressed in transfected cells
T2 sequence (P08172 with tags, fused parts or gaps DEL226-389): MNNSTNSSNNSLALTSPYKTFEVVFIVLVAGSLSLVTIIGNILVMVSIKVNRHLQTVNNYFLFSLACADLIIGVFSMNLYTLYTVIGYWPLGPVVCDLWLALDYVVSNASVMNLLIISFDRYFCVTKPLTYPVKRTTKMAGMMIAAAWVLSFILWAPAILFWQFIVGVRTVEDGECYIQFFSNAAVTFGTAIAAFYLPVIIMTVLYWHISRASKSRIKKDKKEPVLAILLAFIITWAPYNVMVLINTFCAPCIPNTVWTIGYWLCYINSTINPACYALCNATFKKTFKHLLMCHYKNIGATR
Method: as §1

[3] = target: T3, M2 mAChR (Homo sapiens, UniProt P08172, DEL226-389); test: [3H]-NMS competition binding at M2 mAChR nanodiscs with or without Gi1 protein
T3 construct: made in house; host or cells: Sf9 insect cells (receptor, baculovirus); Trichoplusia ni Hi5 cells (G protein); E. coli BL21(DE3) (cMSP1D1 scaffold)
T3 sequence (P08172 with tags, fused parts or gaps DEL226-389): T2 sequence (P08172 with tags, fused parts or gaps DEL226-389)
Method: (§2) The affinity of [^3H]-NMS for M2 mAChR in nanodiscs, as well as the concentration of receptor in nanodiscs, was determined through saturation binding with [^3H]-NMS. M2 nanodiscs were incubated with a range of concentrations of [^3H] […] Membrane equilibrium binding experiments were performed with 15 μg of membrane expressing the WT hM2 mAChR in a 300-μl reaction volume of binding buffer with or without 100 μM Gpp[NH]pp in deep 96-well plates for 6 hours at RT. […] For all radioligand binding experiments, nonspecific binding was defined by 10 μM Atr and the assay was terminated through rapid filtration through Whatman GF/B filter plates using a 96-well harvester (PerkinElmer). Filter plates were dried overnight, and radioactivity was determined by adding 40 μl of MicroScint-O scintillation fluid and counting in a MicroBeta^2 Plate Counter (PerkinElmer Life Sciences).
(§3) All data were analyzed using GraphPad Prism 9 (GraphPad Software, San Diego, CA). […] For competition binding experiments between [^3H]-NMS and a range of concentrations of unlabeled orthosteric agonist at M2 mAChR nanodiscs in the presence of G protein and for competition binding at M2 mAChR membranes, data were fit to a two-site competition binding model or a one-site competition binding model. […] Monoexponential decay and one-phase association equations were fit to the radioligand dissociation and association data at M2 mAChR nanodiscs.

[4] = target: T1, M2 mAChR; test: Gi1 (TRUPATH) protein activation assay in M2 mAChR FlpIn CHO cells; format: cell-based; settings: for Log τ: operational efficacy, operational model of agonism, LY211 value is an estimate (saturation not reached)
Method: Upon 60 to 80% confluence, WT hM2 mAChR expressing FlpIn CHO cells were transfected transiently using polyethylenimine (Sigma-Aldrich) with 10 ng per well of each the G protein TRUPATH biosensors pcDNA5/FRT/TO-Gαi1-RLuc8/pcDNA3.1-β3/pcDNA3.1-Gγ9-GFP2 giving a ratio of 1:1:1 ratio with 30 ng in total. Cells were plated at 30,000 cells per well into 96-well Greiner CELLSTAR white-walled plates (Sigma-Aldrich). Forty-eight hours later, cells were washed with 200 μl of PBS and replaced with 1x Hanks’ balanced salt solution supplemented with 10 mM Hepes. […] The ratio was vehicle corrected using the initial four baseline measurements and then baseline corrected again using the vehicle-treated wells. Concentration-response curves were constructed from the area under the curve (AUC) of the double baseline-corrected kinetic traces and normalized to the highest AUC value in each dataset.
as §3

[5] = target: T3, M2 mAChR; test: [3H]-NMS interaction binding with LY211 and/or G protein at M2 mAChR nanodiscs (full interaction and titration)
Method: as §2, §3

[6] = target: T3, M2 mAChR; test: [3H]-NMS association and dissociation assays at M2 mAChR nanodiscs; format: binding
Method: The affinity of [^3H]-NMS for M2 mAChR in nanodiscs, as well as the concentration of receptor in nanodiscs, was determined through saturation binding with [^3H]-NMS. M2 nanodiscs were incubated with a range of concentrations of [^3H] NMS in a final volume of 200 μl of binding buffer [20 mM Hepes (pH 7.5), 100 mM NaCl, 10 mM MgCl2, and 0.5% bovine serum albumin] for 6 hours at RT. […] Membrane equilibrium binding experiments were performed with 15 μg of membrane expressing the WT hM2 mAChR in a 300-μl reaction volume of binding buffer with or without 100 μM Gpp[NH]pp in deep 96-well plates for 6 hours at RT. […] For all radioligand binding experiments, nonspecific binding was defined by 10 μM Atr and the assay was terminated through rapid filtration through Whatman GF/B filter plates using a 96-well harvester (PerkinElmer). Filter plates were dried overnight, and radioactivity was determined by adding 40 μl of MicroScint-O scintillation fluid and counting in a MicroBeta^2 Plate Counter (PerkinElmer Life Sciences).
as §1

[7] = target: M2ΔICL3 mAChR (Flag-M2ΔICL3-His) reconstituted into cMSP1D1 nanodiscs (human) (UniProt P08172)
[8] = target: M2ΔICL3 mAChR (Flag-M2ΔICL3-His) reconstituted into cMSP1D1 nanodiscs (human) (UniProt P08172); test: radioligand binding; Gi1 heterotrimer titrated (R:G ratios plotted as molar concentration) against a KD concentration of [3H]-NMS at M2 mAChR nanodiscs; affinity for the NMS-bound receptor from the allosteric ternary complex model (ATCM); 20 mM Hepes pH 7.5, 100 mM NaCl, 10 mM MgCl2, 0.5% BSA; 6 hours at RT; filtration; settings: scale: negative logarithm of the equilibrium dissociation constant
[9] = saturating amount of drug alone
[10] = saturating orthosteric agonist + LY211
[11] = saturating amount of drug alone, baseline then rise to steady state with drift model
[12] = Titration against KD concentration of [3H]-NMS, ATCM

Compound: C[N+](C)(C)CC#CCOC1=NOCC1 [Ipx, iperoxo]
- Steady state [1, 9]: 102 ± 0.95 (3)
- Steady state [1, 10]: 114 ± 0.68 (4)
- Initial rate [1, 11]: 217 ± 6.48 (3) BRET units min^−1
- Initial rate [1, 10]: 586 ± 26.8 (4) BRET units min^−1
- pEC50 [2]: 8.23 ± 0.16
- increase in affinity between pKi(Low) and pKi(High) ([3]; M2 mAChR nanodiscs, shift promoted by Gi1): 112 fold
- increase in agonist affinity in the presence of 10 μM LY211 ([3]; M2 mAChR nanodiscs, without G protein): 112 fold
- (G protein) - Log α ([3]; Nanodisc, cooperativity between agonist and G protein (Gi1), ATCM): 2.33 ± 0.18 (3)
- pKi(Low) ([3]; Nanodisc, two-site competition binding model, 6 hours at RT): 7.72 ± 0.06 (11)
- FracHi - M2 mAChR nanodiscs - receptor:G protein molar ratio 1:0 ([3]; fraction of receptors in high-affinity state, two-site model, R:G 1:0): 0.12 ± 0.04 (11)
- FracHi - M2 mAChR nanodiscs - receptor:G protein molar ratio 1:500 ([3]; fraction of receptors in high-affinity state, two-site model, R:G 1:500 (Gi1)): 0.68 ± 0.06 (3)
- FracHi - M2 mAChR nanodiscs - receptor:G protein molar ratio 1:1000 ([3]; fraction of receptors in high-affinity state, two-site model, R:G 1:1000 (Gi1)): 0.76 ± 0.06 (3)
- FracHi - M2 mAChR nanodiscs - receptor:G protein molar ratio 1:2000 ([3]; fraction of receptors in high-affinity state, two-site model, R:G 1:2000 (Gi1)): 0.91 ± 0.05 (3)
- pEC50 ([4]; Gi1 activation (BRET), M2 mAChR FlpIn CHO cells, three-parameter logistic equation): 9.18 ± 0.22 (7)
- Log τ [4]: 1.61 ± 0.25 (7)
- (LY211) - Log αAgonist ([5]; Full interaction, − G protein heterotrimer, cooperativity between orthosteric agonist and LY211, ATCM): 2.05 ± 0.21 (4)

Compound: Cc1c(Cl)c(OCC(=O)N2CCN(C)CC2)nc2sc(C(=O)NC3CC3)c(N)c12 [LY211, LY2119620]
- Steady state [1, 9]: 69.1 ± 4.22 (3)
- Initial rate [1, 11]: 198 ± 51.0 (3) BRET units min^−1
- Log τ [4]: 0.75 ± 0.12 (4)
- (LY211) - Log αAgonist ([5]; Full interaction ACh–LY211, + 1:2000 G protein heterotrimer, not different from zero (F test), constrained to zero): 0
- (LY211) - Log α[3H]-NMS ([5]; Full interaction with ACh, + 1:2000 G protein heterotrimer, ATCM): −0.37 ± 0.04 (4)
- Log α[3H]-NMS [5, 12]: −0.19 ± 0.08 (3)
- Log α[3H]-NMS ([5]; Titration against [3H]-NMS, + 1:2000 G protein heterotrimer, ATCM): −0.81 ± 0.20 (3)
- increase in the affinity of LY211 in the presence of G protein ([5]; titration against [3H]-NMS, with vs without saturating Gi1): sixfold

Compound: C[N+]1(C)[C@@H]2CC(OC(=O)[C@H](CO)c3ccccc3)C[C@H]1[C@@H]1O[C@@H]12 (stereo partly drawn) [[^3H]-NMS, [^3H]-N-methylscopolamine]
- B max ([6]; +10 μM LY211): 115 ± 13.2 (3)
- B max ([6]; +10 μM LY211 + Gi1): 20.33 ± 4.96 (3)
- B max ([6]; [3H]-NMS only, maximal binding at equilibrium, one-phase association model): 131 ± 4.71 (3)
- k off ([6]; [3H]-NMS only, monoexponential decay): 0.150 ± 0.011 (4) min^−1

Compound: G protein heterotrimer: purified WT G protein heterotrimer (Gαi1β1γ2)
- Log α[3H]-NMS [5, 12]: −0.55 ± 0.16 (10)
- pKB [5, 12]: 7.37 ± 0.22 (10)
- Log α[3H]-NMS ([5]; Titration against KD concentration of [3H]-NMS, ATCM, listed as Gi1): −0.55 ± 0.16

Compound: Gq: purified heterotrimeric G protein, Gq α subunit with Gβ1γ2
- effect of G protein heterotrimer on ACh affinity ([3]; 1:2000 molar ratio M2 mAChR:G protein, [3H]-NMS competition binding): could not mediate any change in ACh affinity

Compound: WT G protein heterotrimer Gαi1β1γ2 (from UniProt P63096 1-354; P62873 1-340; P59768 1-71) (complex)
- FracHi: fraction of receptors in the high-affinity state for ACh, [3H]-NMS competition binding at M2 mAChR nanodiscs, receptor:G protein molar ratio 1:0 to 1:2000 (highest at 1:2000) [7]: 1
- FracHi: fraction of receptors in the high-affinity state for Ipx, [3H]-NMS competition binding at M2 mAChR nanodiscs, receptor:G protein molar ratio 1:0 and 1:500 to 1:2000 (highest at 1:2000) [7]: 0.91
- FracHi: fraction of receptors in the high-affinity state for Pilo, [3H]-NMS competition binding at M2 mAChR nanodiscs, receptor:G protein molar ratio 1:0 and 1:500 to 1:2000 (highest at 1:2000) [7]: 0.73
- pKB [8]: 7.37
